According to US7851474B2, “Dipiperazinyl ketones and related analogues” (Neurogen Corporation, priority 2005, dated 2010):
Where two headings read alike, the source gives them in different places.

Molecular target: T1, chimeric human H3 receptor (Homo sapiens, UniProt Q9Y5N1, E19D)
T1 construct: made in house; host or cells: Sf9 insect cells (baculovirus infection); P2 membrane preparation
Assay: Chimeric human H3 receptor screening GTP binding assay (inhibition of histamine-stimulated GTP-gamma35S binding, Example 8)
Format: biochemical
Conditions: 1 h, read-out: percent inhibition of agonist-induced GTP-gammaS binding to H3
Protocol: This Example illustrates a representative screening assay for evaluating inhibition of histamine-stimulated GTP-gamma^35S binding. Such GTP binding activity can be used to identify H3 antagonists and inverse agonists. A compound analyzed in this assay is referred to herein as a “test compound,” and the initial identification of antagonists and inverse agonists is performed using a test compound concentration of 4 μM.
Four independent baculoviral stocks (one directing the expression of the chimeric human H3 receptor and three directing the expression of each of the three subunits of a heterotrimeric G-protein) are used to infect a culture of Sf9 cells as described above. P2 membranes are prepared as described above, and are resuspended by Dounce homogenization (tight pestle) in GTP binding assay buffer (50 mM Tris pH 7.4, 120 mM NaCl, 5 mM MgCl2, 2 mM EGTA, 1 mg/ml BSA, 0.2 mg/ml bacitracin, 0.02 mg/ml aprotinin, 0.01 mg/ml saponin, 10 μM GDP) and added to assay tubes at a concentration of 35 μg protein/reaction tube. Non-radiolabeled test compounds are added to separate reactions at a concentration of 4 μM along with 1 μM histamine (agonist). Reactions are initiated by the addition of 125 pM GTP-gamma^35S with a final assay volume of 0.20 ml.
After a 60-min incubation at room temperature, reactions are terminated by vacuum filtration over GF/C filters (pre-soaked in 50 mM Tris pH 7.4, 120 mM NaCl plus 0.1% BSA) followed by washing with ice-cold buffer (50 mM Tris pH 7.4, 120 mM NaCl). The amount of receptor-bound (and thereby membrane-bound) GTP-gamma^35S is determined by measuring the bound radioactivity, preferably by liquid scintillation spectrometry of the washed filters. Non-specific binding is determined using 10 uM GTP-gammaS and typically represents less than 5 percent of total binding. After subtraction of non-specific binding, data is expressed as percent inhibition of 1 μM histamine signal.
Neutral antagonists are those test compounds that reduce the histamine-stimulated GTP binding activity towards, but not below, baseline levels. In contrast, in the absence of added histamine, inverse agonists reduce the GTP binding activity of the receptor-containing membranes below baseline. Any test compound that elevates GTP binding activity above baseline in the absence of added histamine in this assay is defined as having agonist activity.

[1] = "+" in Ki of Table II, assay of Example 8
[2] = assay described in Example 8, symbol + in column headed Ki of Table II
[3] = Table II, "+" in the column headed Ki, assay of Example 8
[4] = Table II "Ki", symbol "+": assay described in Example 8

T1 sequence (Q9Y5N1 with tags, fused parts or gaps E19D): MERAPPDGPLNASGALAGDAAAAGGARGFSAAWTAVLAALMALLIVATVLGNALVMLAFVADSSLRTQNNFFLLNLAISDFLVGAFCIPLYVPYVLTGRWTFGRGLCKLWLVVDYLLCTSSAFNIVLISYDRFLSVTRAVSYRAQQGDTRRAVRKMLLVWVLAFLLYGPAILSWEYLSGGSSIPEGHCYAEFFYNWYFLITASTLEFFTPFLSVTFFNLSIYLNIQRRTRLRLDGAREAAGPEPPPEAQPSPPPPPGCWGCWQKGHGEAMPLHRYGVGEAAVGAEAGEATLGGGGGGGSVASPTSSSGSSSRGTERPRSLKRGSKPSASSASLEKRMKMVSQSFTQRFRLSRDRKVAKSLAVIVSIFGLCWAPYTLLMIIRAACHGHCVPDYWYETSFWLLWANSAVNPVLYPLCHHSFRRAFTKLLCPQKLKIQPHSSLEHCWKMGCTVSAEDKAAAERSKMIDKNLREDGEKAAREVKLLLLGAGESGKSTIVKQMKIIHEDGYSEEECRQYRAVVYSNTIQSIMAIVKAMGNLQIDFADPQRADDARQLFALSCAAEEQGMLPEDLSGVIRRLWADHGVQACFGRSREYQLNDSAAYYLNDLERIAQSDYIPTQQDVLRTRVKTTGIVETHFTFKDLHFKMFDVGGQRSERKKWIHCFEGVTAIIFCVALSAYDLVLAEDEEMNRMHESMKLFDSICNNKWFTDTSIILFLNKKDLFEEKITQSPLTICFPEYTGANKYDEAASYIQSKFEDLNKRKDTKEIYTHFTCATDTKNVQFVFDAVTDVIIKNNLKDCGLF

SMILES: CCOc1ccccc1/C=C/C(=O)N1CCN(CC(=O)N2CCN(C3CCC3)CC2)CC1 [Compound 523, 1-cyclobutyl-4-({4-[(2E)-3-(2-ethoxyphenyl)prop-2-enoyl]piperazin-1-yl}acetyl)piperazine]
- inhibition at 4 µM [1]: > 90%

SMILES: COc1ccc(CC(=O)N2CCN(CC(=O)N3CCN(C4CCC4)CC3)CC2)cc1 [Compound 563, 1-cyclobutyl-4-({4-[(4-methoxyphenyl)acetyl]piperazin-1-yl}acetyl)piperazine]
- inhibition at 4 µM [1]: > 90%

SMILES: Cc1ccc(C(=O)N2CCN(CC(=O)N3CCN(C4CCC4)CC3)CC2)cc1N [Compound 1153, 5-({4-[2-(4-cyclobutylpiperazin-1-yl)-2-oxoethyl]piperazin-1-yl}carbonyl)-2-methylaniline]
- inhibition at 4 µM (assay of Example 8, "+" in Ki of Table II): > 90%

SMILES: O=C(COc1ccccc1Cl)N1CCN(CC(=O)N2CCN(C3CCC3)CC2)CC1 [Compound 383, 1-[(2-chlorophenoxy)acetyl]-4-[2-(4-cyclobutylpiperazin-1-yl)-2-oxoethyl]piperazine]
- inhibition at 4 µM [2]: > 90%

SMILES: O=C(CN1CCN(C(=O)c2ccsc2)CC1)N1CCN(C2CCC2)CC1 [Compound 765, 1-cyclobutyl-4-{[4-(3-thienylcarbonyl)piperazin-1-yl]acetyl}piperazine]
- inhibition at 4 µM [3]: > 90%

SMILES: O=C(CN1CCN(C(=O)c2cc(-c3ccccc3)nc3ccccc23)CC1)N1CCN(C2CCC2)CC1 [Compound 1089]
- inhibition at 4 µM (Table II, assay of Example 8, "+" in Ki): > 90%

SMILES: O=C(CN1CCN(C(=O)c2ccc(Cl)cc2Cl)CC1)N1CCN(C2CCC2)CC1 [Compound 674, 1-cyclobutyl-4-{[4-(2,4-dichlorobenzoyl)piperazin-1-yl]acetyl}piperazine]
- inhibition at 4 µM [3]: > 90%

SMILES: CCC(C(=O)N1CCN(CC(=O)N2CCN(C3CCC3)CC2)CC1)c1ccccc1 (centres unmarked) [Compound 721, 1-cyclobutyl-4-{[4-(2-phenylbutanoyl)piperazin-1-yl]acetyl}piperazine]
- inhibition at 4 µM [3]: > 90%

SMILES: Cn1c(C(=O)N2CCN(CC(=O)N3CCN(C4CCC4)CC3)CC2)cc2ccccc21 [Compound 887, 2-({4-[2-(4-cyclobutylpiperazin-1-yl)-2-oxoethyl]piperazin-1-yl}carbonyl)-1-methyl-1H-indole]
- inhibition at 4 µM [4]: > 90%

SMILES: Cc1cc(C(=O)N2CCN(CC(=O)N3CCN(C4CCC4)CC3)CC2)cc(Cl)n1 [Compound 276, 1-(2-chloro-6-methylisonicotinoyl)-4-[2-(4-cyclobutylpiperazin-1-yl)-2-oxoethyl]piperazine]
- inhibition at 4 µM [2]: > 90%

SMILES: COc1ccc(OC)c(/C=C/C(=O)N2CCN(CC(=O)N3CCN(C4CCC4)CC3)CC2)c1 [Compound 521, 1-cyclobutyl-4-({4-[(2E)-3-(2,5-dimethoxyphenyl)prop-2-enoyl]piperazin-1-yl}acetyl)piperazine]
- inhibition at 4 µM [1]: > 90%

SMILES: Cc1cc(C(=O)N2CCN(CC(=O)N3CCN(C4CCC4)CC3)CC2)oc1C [Compound 766, 1-cyclobutyl-4-{[4-(4,5-dimethyl-2-furoyl)piperazin-1-yl]acetyl}piperazine]
- inhibition at 4 µM [3]: > 90%

SMILES: O=C(CN1CCN(C(=O)c2sccc2Cl)CC1)N1CCN(C2CCC2)CC1 [Compound 398, 1-[(3-chloro-2-thienyl)carbonyl]-4-[2-(4-cyclobutylpiperazin-1-yl)-2-oxoethyl]piperazine]
- inhibition at 4 µM [2]: > 90%

SMILES: CC(Oc1ccc(Cl)cc1)C(=O)N1CCN(CC(=O)N2CCN(C3CCC3)CC2)CC1 (centres unmarked) [Compound 420, 1-[2-(4-chlorophenoxy)propanoyl]-4-[2-(4-cyclobutylpiperazin-1-yl)-2-oxoethyl]piperazine]
- inhibition at 4 µM [2]: > 90%

SMILES: O=C(CN1CCN(C(=O)c2cc3ccccc3s2)CC1)N1CCN(C2CCC2)CC1 [Compound 261, 1-(1-benzothien-2-ylcarbonyl)-4-[2-(4-cyclobutylpiperazin-1-yl)-2-oxoethyl]piperazine]
- inhibition at 4 µM [2]: > 90%

SMILES: O=C(Cc1cccc(OC(F)(F)F)c1)N1CCN(CC(=O)N2CCN(C3CCC3)CC2)CC1 [Compound 626, 1-cyclobutyl-4-[(4-{[3-(trifluoromethoxy)phenyl]acetyl}piperazin-1-yl)acetyl]piperazine]
- inhibition at 4 µM [3]: > 90%

SMILES: Cc1cccc(CC(=O)N2CCN(CC(=O)N3CCN(C4CCC4)CC3)CC2)c1 [Compound 555, 1-cyclobutyl-4-({4-[(3-methylphenyl)acetyl]piperazin-1-yl}acetyl)piperazine]
- inhibition at 4 µM [1]: > 90%

SMILES: O=C(CN1CCN(C(=O)c2c(F)cccc2F)CC1)N1CCN(C2CCC2)CC1 [Compound 693, 1-cyclobutyl-4-{[4-(2,6-difluorobenzoyl)piperazin-1-yl]acetyl}piperazine]
- inhibition at 4 µM [3]: > 90%

SMILES: COc1cc(Cl)ccc1C(=O)N1CCN(CC(=O)N2CCN(C3CCC3)CC2)CC1 [Compound 342, 1-(4-chloro-2-methoxybenzoyl)-4-[2-(4-cyclobutylpiperazin-1-yl)-2-oxoethyl]piperazine]
- inhibition at 4 µM [2]: > 90%

SMILES: COc1ccc(C(=O)N2CCN(CC(=O)N3CCN(C4CCC4)CC3)CC2)cc1OC [Compound 731, 1-cyclobutyl-4-{[4-(3,4-dimethoxybenzoyl)piperazin-1-yl]acetyl}piperazine]
- inhibition at 4 µM [3]: > 90%

SMILES: COc1cc(OC)c(OC)cc1/C=C/C(=O)N1CCN(CC(=O)N2CCN(C3CCC3)CC2)CC1 [Compound 518, 1-cyclobutyl-4-({4-[(2E)-3-(2,4,5-trimethoxyphenyl)prop-2-enoyl]piperazin-1-yl}acetyl)piperazine]
- inhibition at 4 µM [1]: > 90%

SMILES: COc1cc(Br)c(/C=C/C(=O)N2CCN(CC(=O)N3CCN(C4CCC4)CC3)CC2)cc1OC [Compound 386, 1-[(2E)-3-(2-bromo-4,5-dimethoxyphenyl)prop-2-enoyl]-4-[2-(4-cyclobutylpiperazin-1-yl)-2-oxoethyl]piperazine]
- inhibition at 4 µM [2]: > 90%

SMILES: O=C(CN1CCN(C(=O)c2cc(-c3ccc(Cl)cc3)oc2C(F)(F)F)CC1)N1CCN(C2CCC2)CC1 [Compound 469, 1-[5-(4-chlorophenyl)-2-(trifluoromethyl)-3-furoyl]-4-[2-(4-cyclobutylpiperazin-1-yl)-2-oxoethyl]piperazine]
- inhibition at 4 µM [1]: > 90%

SMILES: Cc1ccccc1CC(=O)N1CCN(CC(=O)N2CCN(C3CCC3)CC2)CC1 [Compound 539, 1-cyclobutyl-4-({4-[(2-methylphenyl)acetyl]piperazin-1-yl}acetyl)piperazine]
- inhibition at 4 µM [1]: > 90%

SMILES: O=C(CN1CCN(C(=O)c2cncc(Br)c2)CC1)N1CCN(C2CCC2)CC1 [Compound 411, 1-[(5-bromopyridin-3-yl)carbonyl]-4-[2-(4-cyclobutylpiperazin-1-yl)-2-oxoethyl]piperazine]
- inhibition at 4 µM [2]: > 90%

SMILES: CC(C)c1ccc(C(=O)N2CCN(CC(=O)N3CCN(C4CCC4)CC3)CC2)cc1 [Compound 777, 1-cyclobutyl-4-{[4-(4-isopropylbenzoyl)piperazin-1-yl]acetyl}piperazine]
- inhibition at 4 µM [4]: > 90%

SMILES: O=C(CN1CCN(C(=O)c2cc(C(F)(F)F)ccc2Cl)CC1)N1CCN(C2CCC2)CC1 [Compound 452, 1-[2-chloro-5-(trifluoromethyl)benzoyl]-4-[2-(4-cyclobutylpiperazin-1-yl)-2-oxoethyl]piperazine]
- inhibition at 4 µM [1]: > 90%

SMILES: O=C(/C=C/c1ccc(Cl)cc1Cl)N1CCN(CC(=O)N2CCN(C3CCC3)CC2)CC1 [Compound 519, 1-cyclobutyl-4-({4-[(2E)-3-(2,4-dichlorophenyl)prop-2-enoyl]piperazin-1-yl}acetyl)piperazine]
- inhibition at 4 µM [1]: > 90%

SMILES: O=C(Cc1cccc(F)c1)N1CCN(CC(=O)N2CCN(C3CCC3)CC2)CC1 [Compound 550, 1-cyclobutyl-4-({4-[(3-fluorophenyl)acetyl]piperazin-1-yl}acetyl)piperazine]
- inhibition at 4 µM [1]: > 90%

SMILES: O=C(CN1CCN(C(=O)c2cc(Cl)nc(Cl)c2)CC1)N1CCN(C2CCC2)CC1 [Compound 692]
- inhibition at 4 µM [3]: > 90%

SMILES: O=C(CN1CCN(C(=O)c2csc(-c3ccncc3)n2)CC1)N1CCN(C2CCC2)CC1 [Compound 543, 1-cyclobutyl-4-({4-[(2-pyridin-4-yl-1,3-thiazol-4-yl)carbonyl]piperazin-1-yl}acetyl)piperazine]
- inhibition at 4 µM [1]: > 90%

SMILES: O=C(Cc1ccccc1Cl)N1CCN(CC(=O)N2CCN(C3CCC3)CC2)CC1 [Compound 384, 1-[(2-chlorophenyl)acetyl]-4-[2-(4-cyclobutylpiperazin-1-yl)-2-oxoethyl]piperazine]
- inhibition at 4 µM [2]: > 90%
